Data: patent publication US4310660A, “Lincomycin compounds” (The Upjohn Company, priority 1980, dated 1982)
≈ marks a conversion by molar mass, not a printed value. Where two headings read alike, the source gives them in different places.

Tests used:
Format in all cases: cell-based
Staphylococcus aureus = experiment: MIC vs. aerobic bacteria, microplate broth-dilution (BHI)
Diplococcus pneumoniae = experiment: as above; details: D. pneumoniae UC 41
Procedure: (§1) The Minimal Inhibitory Concentration (MIC's) of both compounds Vs. aerobic bacteria is determined using a standard microplate broth-dilution method. Brain Heart Infusion (BHI-Difco) broth medium is used, and the plates are incubated at 37° C. for 20 hrs.

Escherichia coli = experiment: as above; details: UC45, 20 h, E. coli UC 45, read-out: MIC
Procedure: as §1

Klebsiella pneumoniae = experiment: as above; details: K. pneumoniae UC 58
Procedure: as §1

Proteus vulgaris = experiment: as above; details: P. vulgaris UC 93
Procedure: as §1

Pseudomonas aeruginosa = experiment: as above; details: UC95, 20 h, Ps. aeruginosa UC 95, read-out: MIC
Procedure: as §1

[1] = system: Salmonella schottmuelleri; experiment: as above; details: S. schottmuelleri UC 126
Procedure: as §1

Streptococcus faecalis = experiment: as above; details: St. faecalis UC 694
Procedure: as §1

S. hemolyticus = experiment: MIC, test procedure as given supra; details: S. hemolyticus UC 152
Procedure: as §1
The Minimal Inhibitory Concentration (MIC's) of a representative number of the compounds prepared in Examples 2-8 follows. The test procedure is as given supra.

[2] = Staphylococcus aureus, UC76, 20 h, S. aureus UC 76, read-out: MIC
[3] = Staphylococcus aureus, UC570, 20 h, S. aureus UC 570, read-out: MIC
[4] = Staphylococcus aureus, UC746, 20 h, S. aureus UC 746, read-out: MIC
[5] = Streptococcus pneumoniae, UC41, 20 h, read-out: MIC
[6] = Klebsiella pneumoniae, UC58, 20 h, read-out: MIC
[7] = Proteus vulgaris, UC93, 20 h, read-out: MIC
[8] = Enterococcus faecalis, UC694, 20 h, read-out: MIC

SMILES | MIC (Staphylococcus aureus; [2]) [µg/mL] | MIC (Staphylococcus aureus; [3]) [µg/mL] | MIC (Staphylococcus aureus; [4]) [µg/mL] | MIC (Diplococcus pneumoniae; [5]) [µg/mL] | MIC (Escherichia coli) [µg/mL] | MIC (Klebsiella pneumoniae; [6]) [µg/mL] | MIC (Proteus vulgaris; [7]) [µg/mL] | MIC (Pseudomonas aeruginosa) [µg/mL] | MIC ([1]; Salmonella, UC126, 20 h) [µg/mL] | MIC (Streptococcus faecalis; [8]) [µg/mL] | MIC (S. hemolyticus; UC152, 20 h, read-out: MIC) [µg/mL] | other results
CS[C@H]1O[C@H]([C@H](NC(=O)C2CCCCN2CCO)[C@H](C)Cl)[C@H](O)[C@H](O)[C@H]1O (stereo partly drawn) [U-44,469] | 250 (≈ 586 µM) | 250 (≈ 586 µM) | > 1000 | 31.3 (≈ 73.3 µM) | > 1000 | > 1000 | > 1000 | > 1000 | > 1000 | 1000 (≈ 2340 µM) | 31.3 (≈ 73.3 µM) | 
CCc1ccnc(C(=O)N[C@@H]([C@H]2O[C@H](SC)[C@H](O)[C@@H](O)[C@H]2O)[C@H](C)Cl)c1 [U-45,652] | 1000 (≈ 2470 µM) | > 1000 | 1000 (≈ 2470 µM) | 500 (≈ 1230 µM) | > 1000 | 500 (≈ 1230 µM) | > 1000 | > 1000 | > 1000 | > 1000 | 500 (≈ 1230 µM) | 
CCc1ccnc(C(=O)N[C@@H]([C@H]2O[C@H](SC)[C@H](O)[C@@H](O)[C@H]2O)[C@@H](C)O)c1 [U-45,653] | > 1000 | > 1000 | > 1000 | > 1000 | > 1000 | > 1000 | > 1000 | > 1000 | > 1000 | > 1000 | > 1000 | 
CCc1ccc(C(=O)N[C@@H]([C@H]2O[C@H](SC)[C@H](O)[C@@H](O)[C@H]2O)[C@H](C)Cl)nc1 [U-45,656] | 62.5 (≈ 154 µM) | 62.5 (≈ 154 µM) | 62.5 (≈ 154 µM) |  | > 1000 | 1000 (≈ 2470 µM) | > 1000 | > 1000 | 1000 (≈ 2470 µM) | 1000 (≈ 2470 µM) | 3.9 (≈ 9.63 µM) | 
CS[C@H]1O[C@H]([C@H](NC(=O)c2cccnc2Cl)[C@H](C)Cl)[C@H](O)[C@H](O)[C@H]1O [U-45,657] | 125 (≈ 304 µM) | 250 (≈ 608 µM) | 250 (≈ 608 µM) |  | > 1000 | > 1000 | > 1000 | > 1000 | > 1000 | > 1000 | 7.8 (≈ 19 µM) | 
CS[C@H]1O[C@H]([C@H](NC(=O)c2ccccn2)[C@H](C)Cl)[C@H](O)[C@H](O)[C@H]1O [U-45,863] | 62.5 (≈ 166 µM) |  |  | 62.5 (≈ 166 µM) | > 1000 | > 1000 | > 1000 | > 1000 | > 1000 |  | 2 (≈ 5.31 µM) | 
CS[C@H]1O[C@H]([C@H](NC(=O)c2ccccn2)[C@H](C)O)[C@H](O)[C@H](O)[C@H]1O [U-46,135] | > 1000 | > 1000 | > 1000 | > 1000 | > 1000 | > 1000 | > 1000 | > 1000 | > 1000 | > 1000 | 1000 (≈ 2790 µM) | 
CS[C@H]1O[C@H]([C@H](NC(=O)c2ccccn2)[C@@H](C)O)[C@H](O)[C@H](O)[C@H]1O [U-46,136] | > 1000 | > 1000 | > 1000 | > 1000 | > 1000 | > 1000 | > 1000 | > 1000 | > 1000 | > 1000 | 1000 (≈ 2790 µM) | 
CS[C@H]1O[C@H]([C@H](NC(=O)c2ccncc2)[C@H](C)Cl)[C@H](O)[C@H](O)[C@H]1O [U-46,137] | > 1000 | > 1000 | > 1000 | 500 (≈ 1330 µM) | 1000 (≈ 2650 µM) | 1000 (≈ 2650 µM) | > 1000 | 1000 (≈ 2650 µM) | 1000 (≈ 2650 µM) | > 1000 | 1000 (≈ 2650 µM) | 
CS[C@H]1O[C@H]([C@H](NC(=O)C2CCCCN2)[C@H](C)Cl)[C@H](O)[C@H](O)[C@H]1O (stereo partly drawn) [U-46,337] |  |  |  |  | > 1000 | > 1000 | > 1000 | > 1000 | > 1000 |  |  | MIC (Staphylococcus aureus; S. aureus UC 76, listed as 46,337): 1000 µg/mL (≈ 2610 µM); MIC (Staphylococcus aureus; S. aureus UC 570, listed as 46,337): 1000 µg/mL (≈ 2610 µM); MIC (Staphylococcus aureus; S. aureus UC 746, listed as 46,337): 1000 µg/mL (≈ 2610 µM); MIC (Diplococcus pneumoniae; listed as 46,337): 250 µg/mL (≈ 653 µM); MIC (Streptococcus faecalis; listed as 46,337): > 1000 µg/mL; MIC (S. hemolyticus; listed as 46,337): 250 µg/mL (≈ 653 µM)
CS[C@H]1O[C@H]([C@H](NC(=O)C2CCCCN2)[C@H](C)Cl)[C@H](O)[C@H](O)[C@H]1O (stereo partly drawn) [U-46,465] |  |  |  |  |  |  |  |  |  |  |  | MIC (Staphylococcus aureus; S. aureus UC 76, listed as 46,465): 3.9 µg/mL (≈ 10.2 µM); MIC (Staphylococcus aureus; S. aureus UC 570, listed as 46,465): 31.2 µg/mL (≈ 81.5 µM); MIC (Staphylococcus aureus; S. aureus UC 746, listed as 46,465): 3.9 µg/mL (≈ 10.2 µM); MIC (Diplococcus pneumoniae; listed as 46,465): < 1.0 µg/mL; MIC (Klebsiella pneumoniae): 500 µg/mL (≈ 1310 µM); MIC (Proteus vulgaris): 1000 µg/mL (≈ 2610 µM); MIC [1]: 1000 µg/mL (≈ 2610 µM); MIC (Streptococcus faecalis; listed as 46,465): 3.9 µg/mL (≈ 10.2 µM); MIC (S. hemolyticus; listed as 46,465): < 1.0 µg/mL
CS[C@H]1O[C@H]([C@H](NC(=O)C2CCCCN2C)[C@H](C)Cl)[C@H](O)[C@H](O)[C@H]1O (stereo partly drawn) [U-46,699] | 3.9 (≈ 9.83 µM) | 7.8 (≈ 19.7 µM) | 7.8 (≈ 19.7 µM) | < 1 | 1000 (≈ 2520 µM) | 250 (≈ 630 µM) | 1000 (≈ 2520 µM) | > 1000 | > 1000 | 15.6 (≈ 39.3 µM) | 3.9 (≈ 9.83 µM) | 
CS[C@H]1O[C@H]([C@H](NC(=O)C2CCCCN2)[C@@H](C)O)[C@H](O)[C@H](O)[C@H]1O (stereo partly drawn) [U-60,492] |  |  |  |  |  |  |  |  |  |  |  | MIC (Staphylococcus aureus; S. aureus UC 570): > 1000 µg/mL; MIC (Staphylococcus aureus; S. aureus UC 746): 250 µg/mL (≈ 686 µM); MIC (Diplococcus pneumoniae): 31.2 µg/mL (≈ 85.6 µM); MIC (Streptococcus faecalis): > 1000 µg/mL; MIC (S. hemolyticus): 15.6 µg/mL (≈ 42.8 µM)
CS[C@H]1O[C@H]([C@H](NC(=O)C2CCCCN2)[C@@H](C)O)[C@H](O)[C@H](O)[C@H]1O (stereo partly drawn) [U-60,493] | 1000 (≈ 2740 µM) | 1000 (≈ 2740 µM) | 250 (≈ 686 µM) | 15.6 (≈ 42.8 µM) | > 1000 | > 1000 | > 1000 | > 1000 | > 1000 | 1000 (≈ 2740 µM) | 7.8 (≈ 21.4 µM) | 
